Laboratory results as given in EP1561465A2, “Methods of use of fluoroquinolone compounds against bacteria” (LG Life Sciences, Ltd., priority 1999, dated 2001).
Values after ≈ are worked out from the molar mass of the structure shown. Like-named read-outs stand apart in the source and are kept apart here.

Tests used:
Assay type in all cases: cell-based
Enterococcus faecalis = assay: MIC by agar macrodilution (NCCLS), 373 Gram positive isolates, Athens 1998
Shigella spp. = assay: MIC by agar dilution (NCCLS M7-A4), 288 enteropathogenic isolates, gemifloxacin and 15 other antimicrobials; details: Shigella spp. N= 21
Method in brief: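 Agar dilution with ~10^4 cfu/spot inoculum; plates incubated aerobically at 35 °C for 24 h, except C. jejuni, held microaerophilically for 48 h. MIC taken as lowest antibiotic concentration with no visible growth.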

Haemophilus influenzae [1] = assay: MIC by agar dilution (NCCLS), 411 isolates Buenos Aires 1998-99; details: Haemophilus influenzae (n = 65)
Streptococcus pyogenes [2] = assay: as above; details: Streptococcus pyogenes (n = 69)
Streptococcus pyogenes [3] = assay: MIC by NCCLS reference broth microdilution, 450 respiratory tract pathogens; details: Streptococcus pyogenes
Haemophilus influenzae [4] = assay: as above; details: Haemophilus influenzae; for MIC90: read-out: MIC90
Haemophilus influenzae [5] = assay: MIC by two-fold serial agar dilution, Sensitivity Disk agar-N (Kitasato isolates); details: Haemophilus influenzae (24)
Enterococcus gallinarum = assay: MIC by NCCLS broth microdilution, 1100 Japanese clinical isolates 1997-1998; details: Enterococcus gallinarum, GALLINARUM, Enterococcus gallinarum (vanC1), read-out: MIC
Enterobacter cloacae = assay: as above; details: Enterobacter cloacae (n=40)
[6] = 24 h, read-out: MIC (mg/L) Range
[7] = erythromycin resistant C phenotype [MLSB] (n = 20)
[8] = erythromycin resistant I phenotype [MLSB] (n = 20)
[9] = Haemophilus influenzae (n = 100)

Cc1c(F)c(N2CCNC(C)C2)cc2c1c(=O)c(C(=O)O)cn2C1CC1 (stereo not shown) [Grepafloxacin, grepafloxacin] was tested, and the “MIC distribution (µg/ml) 0.03” value (Enterococcus faecalis) was 0, the “MIC distribution (µg/ml) 0.06” value (Enterococcus faecalis) was 0 and the “MIC distribution (µg/ml) 0.125” value (Enterococcus faecalis) was 0. The “MIC distribution (µg/ml) 0.25” value (Enterococcus faecalis) was 2, the “MIC distribution (µg/ml) 1” value (Enterococcus faecalis) was 22 and the “MIC distribution (µg/ml) 2” value (Enterococcus faecalis) was 21. The “MIC distribution (µg/ml) 4” value (Enterococcus faecalis) was 6, the “MIC distribution (µg/ml) 8” value (Enterococcus faecalis) was 4 and the “MIC distribution (µg/ml) 16” value (Enterococcus faecalis) was 2. The “MIC distribution (µg/ml) ≤0.015” value (Enterococcus faecalis) was 0, the “MIC distribution (µg/ml) ≥32” value (Enterococcus faecalis) was 19 and the MIC50 (Enterococcus faecalis; Enterococcus faecalis, n = 81 isolates, read-out: MIC50) was 2 µg/mL (≈ 5.56 µM). The MIC90 (Enterococcus faecalis; Enterococcus faecalis, n = 81 isolates, read-out: MIC90) was no less than 32 µg/mL, the “MIC distribution (µg/ml) 0.5” value (Enterococcus faecalis; number of isolates at MIC 0.5 µg/ml, n = 81) was 5 and the MIC (Shigella spp.; [6]) was 0.015 to 0.03 mg/L (≈ 0.0417 to 0.0835 µM). It also gave an MIC (Shigella spp.; read-out: MIC (mg/L) 50%) of no more than 0.015 mg/L and an MIC (Shigella spp.; read-out: MIC (mg/L) 90%) of 0.03 mg/L (≈ 0.0835 µM).
In the case of C[C@H]1COc2c(N3CCN(C)CC3)c(F)cc3c(=O)c(C(=O)O)cn1c23 [Levofloxacin, levofloxacin], the MIC90 (Haemophilus influenzae [1]) is reported as 0.016 µg/mL (≈ 0.0443 µM), the “MIC Range” value (Haemophilus influenzae [1]) is reported as no more than 4 to 250 ng/mL and the “MIC Range” value (Streptococcus pyogenes [2]) is reported as 0.25 to 2 µg/mL. For the same molecule, the MIC (Streptococcus pyogenes [3]; Streptococcus pyogenes (n = 100)) was 0.06 to 2 µg/mL (≈ 0.166 to 5.53 µM), the MIC (Streptococcus pyogenes [3]; [7]) was 0.25 to 1 µg/mL (≈ 0.692 to 2.77 µM) and the MIC50 (Streptococcus pyogenes [3]; [7]) was 0.25 µg/mL (≈ 0.692 µM). The MIC90 (Streptococcus pyogenes [3]; [7]) was 0.25 µg/mL (≈ 0.692 µM), the MIC (Streptococcus pyogenes [3]; [8]) was 0.25 to 2 µg/mL (≈ 0.692 to 5.53 µM) and the MIC50 (Streptococcus pyogenes [3]; [8]) was 0.25 µg/mL (≈ 0.692 µM). For the same molecule, the MIC90 (Streptococcus pyogenes [3]; [8]) was 0.25 µg/mL (≈ 0.692 µM), the MIC (Streptococcus pyogenes [3]; erythromycin resistant M phenotype (n = 20)) was 0.06 to 1 µg/mL (≈ 0.166 to 2.77 µM) and the MIC (Streptococcus pyogenes [3]; fully susceptible (n = 20)) was 0.25 to 2 µg/mL (≈ 0.692 to 5.53 µM). It also gave an MIC (Streptococcus pyogenes [3]; multi-drug resistant (n = 20)) of 0.25 to 1 µg/mL (≈ 0.692 to 2.77 µM), an MIC (Haemophilus influenzae [4]; [9]) of 0.0075 to 0.5 µg/mL (≈ 0.0208 to 1.38 µM) and an MIC50 (Haemophilus influenzae [4]; [9]) of 0.015 µg/mL (≈ 0.0415 µM). The MIC90 (Haemophilus influenzae [4]; [9]) was 0.03 µg/mL (≈ 0.083 µM), the MIC (Haemophilus influenzae [4]; β-lactamase negative (n = 80)) was 0.0075 to 0.5 µg/mL (≈ 0.0208 to 1.38 µM) and the MIC50 (Haemophilus influenzae [4]; β-lactamase negative (n = 80)) was 0.015 µg/mL (≈ 0.0415 µM). For the same molecule, the MIC90 (Haemophilus influenzae [4]; β-lactamase negative (n = 80)) was 0.015 µg/mL (≈ 0.0415 µM), the MIC (Haemophilus influenzae [4]; β-lactamase positive (n = 20)) was 0.0075 to 0.03 µg/mL (≈ 0.0208 to 0.083 µM) and the MIC50 (Haemophilus influenzae [4]; β-lactamase positive (n = 20)) was 0.015 µg/mL (≈ 0.0415 µM). The MIC90 (Haemophilus influenzae [4]; β-lactamase positive (n = 20)) was 0.03 µg/mL (≈ 0.083 µM), the MIC50 (Haemophilus influenzae [5]) was 0.031 µg/mL (≈ 0.0858 µM) and the MIC90 (Haemophilus influenzae [5]) was 0.031 µg/mL (≈ 0.0858 µM). For the same molecule, the “MIC Range” value (Haemophilus influenzae [5]) was 0.016 to 0.031 µg/mL, the MIC (Enterococcus gallinarum; strain TMS1) was 1 µg/mL (≈ 2.77 µM) and the MIC (Enterococcus gallinarum; strain TMS2) was 2 µg/mL (≈ 5.53 µM). It also gave an MIC (Enterococcus gallinarum; strain TMS3) of 1 µg/mL (≈ 2.77 µM), an MIC (Enterococcus gallinarum; strain TMS4) of 0.5 µg/mL (≈ 1.38 µM) and an MIC50 (Enterobacter cloacae) of 0.032 µg/mL (≈ 0.0886 µM). The MIC90 (Enterobacter cloacae) was 0.5 µg/mL (≈ 1.38 µM), the “MIC Range” value (Enterobacter cloacae) was 0.016 to 1 µg/mL and the MIC (Shigella spp.; [6]) was 0.015 to 0.03 mg/L (≈ 0.0415 to 0.083 µM). It also gave an MIC (Shigella spp.; read-out: MIC (mg/L) 50%) of 0.03 mg/L (≈ 0.083 µM) and an MIC (Shigella spp.; read-out: MIC (mg/L) 90%) of 0.03 mg/L (≈ 0.083 µM).
